This passage reports IC50 results from ChEMBL document CHEMBL5727375, “Apoptosis signal-regulating kinase 1 inhibitors and methods of use thereof” (2019).

Usually IC50 stands for the midpoint of a concentration-inhibition curve.

In the assay the target is T1, Mitogen-activated protein kinase kinase kinase 5 (Homo sapiens, UniProt Q99683).
T1 sequence (Q99683 whole entry): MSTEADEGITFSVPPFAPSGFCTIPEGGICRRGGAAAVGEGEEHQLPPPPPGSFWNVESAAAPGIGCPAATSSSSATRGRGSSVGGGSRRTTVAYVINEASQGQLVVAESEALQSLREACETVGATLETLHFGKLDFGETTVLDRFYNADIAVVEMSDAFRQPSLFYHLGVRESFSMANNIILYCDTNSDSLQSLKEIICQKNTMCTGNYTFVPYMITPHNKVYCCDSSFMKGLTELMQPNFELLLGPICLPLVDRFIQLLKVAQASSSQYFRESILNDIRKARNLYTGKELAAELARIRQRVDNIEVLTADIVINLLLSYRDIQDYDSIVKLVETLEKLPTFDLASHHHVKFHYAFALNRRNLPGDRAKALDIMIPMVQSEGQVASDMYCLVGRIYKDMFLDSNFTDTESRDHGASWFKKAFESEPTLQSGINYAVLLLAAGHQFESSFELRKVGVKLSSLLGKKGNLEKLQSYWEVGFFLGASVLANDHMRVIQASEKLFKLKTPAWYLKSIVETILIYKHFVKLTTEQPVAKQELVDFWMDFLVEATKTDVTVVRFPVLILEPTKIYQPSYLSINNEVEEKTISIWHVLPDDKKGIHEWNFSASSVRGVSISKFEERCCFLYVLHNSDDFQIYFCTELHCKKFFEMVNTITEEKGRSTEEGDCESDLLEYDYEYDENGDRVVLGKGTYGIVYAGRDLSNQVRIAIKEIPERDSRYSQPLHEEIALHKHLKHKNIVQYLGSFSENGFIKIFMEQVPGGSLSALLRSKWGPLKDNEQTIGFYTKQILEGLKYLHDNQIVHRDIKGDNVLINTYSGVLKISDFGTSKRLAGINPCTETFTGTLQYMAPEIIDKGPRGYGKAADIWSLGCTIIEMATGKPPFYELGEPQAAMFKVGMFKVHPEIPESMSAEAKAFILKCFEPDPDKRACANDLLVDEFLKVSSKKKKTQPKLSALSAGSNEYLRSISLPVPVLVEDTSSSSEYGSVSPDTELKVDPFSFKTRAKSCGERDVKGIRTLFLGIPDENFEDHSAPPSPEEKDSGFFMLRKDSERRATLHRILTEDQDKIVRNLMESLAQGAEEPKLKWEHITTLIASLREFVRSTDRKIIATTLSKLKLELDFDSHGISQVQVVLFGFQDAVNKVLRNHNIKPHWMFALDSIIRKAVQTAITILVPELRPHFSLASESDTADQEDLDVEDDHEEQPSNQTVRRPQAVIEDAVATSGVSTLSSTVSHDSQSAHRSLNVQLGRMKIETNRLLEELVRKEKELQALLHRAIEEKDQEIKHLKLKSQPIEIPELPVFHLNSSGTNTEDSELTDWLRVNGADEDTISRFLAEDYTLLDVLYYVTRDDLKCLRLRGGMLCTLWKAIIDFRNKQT
The assay can be described thus: HTRF KinEASE Assay : HTRF KinEASE-STK is a generic method for measuring serine/threonine kinase activities using a time-resolved fluorescence resonance energy transfer (TR-FRET) immunoassay. The IC50 value for each compound was determined in the presence of compound (various concentration from 0 to 10 μM) and a fixed amount of ATP and peptide substrates. The test compound, 1 Um STK3 peptide substrate, and 5 Nm of ASK1 kinase are incubated with kinase reaction buffer containing 50 Mm HEPES Ph 7.5, 0.01% BRIJ-35, 10 Mm MgCl2, and 1 Mm EGTA for 30 minutes. 100 Um ATP is added to start kinase reaction and incubated for 3 hours. The STK3-antibody labeled with Eu3+-Cryptate and 125 Nm streptavidin-XL665 are mixed in a single addition with stop reagents provided by the Cisbio kit used to stop the kinase reaction. Fluorescence is detected using an Envision Multilabeled 2014 reader from PerkinElmer. The Fluorescence is measured at 615 nm (Cryptate) and 665 nm (XL665) and a ratio of 665 nm/615 nm is calculated for each well.

Regarding `CCOC(=O)N1Cc2cnc(C(=O)Nc3cccc(-c4nncn4C(C)C)n3)cc2C1`, the IC50 was 10 to 100 nM.
